Structures can show the parent of a compound that is named as a salt. Where two headings read alike, the source gives them in different places.
Tested on: murine neural precursor cells (neurosphere cultures)
Experiment: HTS of LOPAC library against secondary neurosphere cultures, MTT proliferation assay at 3 μM, day 7 (z score, P value)
Format: cell-based, mouse
[1] = LOPAC primary screen, neurosphere MTT proliferation, 3 μM, day 7
[2] = yes/no: significantly inhibited neurosphere proliferation (P<0.01) in the primary screen
[3] = yes/no: significantly inhibited neurosphere proliferation (P<0.01) in primary screen
[4] = yes/no: significantly inhibited neurosphere proliferation in primary screen
[5] = LOPAC library screen, 3 μM, MTT, secondary neurosphere cultures, day 7
[6] = yes = significantly inhibited neurosphere proliferation (P<0.01) in the primary screen
[7] = LOPAC library screen at 3 μM, MTT, secondary neurosphere cultures, screened in singlets
[8] = LOPAC screen, neurosphere MTT proliferation, 3 μM, day 7
[9] = yes/no: significantly inhibited neurosphere proliferation in the primary screen
[10] = LOPAC library screen at 3 μM, secondary neurosphere cultures, MTT
[11] = primary LOPAC screen, 3 μM, MTT, neurosphere proliferation
[12] = LOPAC library screen, 3 μM, MTT, neurosphere cultures

With `CCCCCCCC/C=C\CCCCCCCC(=O)O` [Oleic acid] the Z score [1] was −0.345 and the Activity [2] was “no”.

For `O=C(O)/C(=C/c1c(C(=O)O)[nH]c2cc(Cl)cc(Cl)c12)c1ccccc1` [MDL 105,519], the Activity was “no”, the “Z Score” value was 2.565 and the Z score was 2.565.

`O=C1CCC(c2ccc(-n3ccnc3)cc2)=NN1` [Imazodan] was tested, and the “Z Score” value (168 h, 3 µM) was 0.4616, the Z score (168 h, 3 µM) was 0.462 and the Activity [3] was “no”.

In the case of `CC(N)=O` [Acetamide], the “Z Score” value (168 h, 3 µM) is reported as −1.94, the Z score (168 h, 3 µM) is reported as −1.940 and the Activity [4] is reported as “no”.

With `C[N+](C)(C)CCCCCC[N+](C)(C)C.[Cl-].[Cl-]` [Hexamethonium dichloride] the “Z Score” value was −10.63, the Z score [1] was −10.634 and the Activity [2] was “yes”.

For `C[C@]12CCC(=O)C=C1CC[C@@H]1[C@@H]2[C@@H](O)C[C@@]2(C)[C@H]1CC[C@]2(O)C(=O)CO` [Hydrocortisone], the “Z Score” value [5] was −3.049, the Z score [1] was −3.049 and the Activity [6] was “yes”.

For `O=NN(CCCl)C(=O)NCCCl` [Carmustine], the “Z Score” value [7] was 2.191, the Z score [8] was 2.191 and the Activity [3] was “no”.

With `O=[N+]([O-])c1cccc2c(Br)n[nH]c12` [3-Bromo-7-nitroindazole] the “Z Score” value (168 h, 3 µM) was −1.68, the Z score (168 h, 3 µM) was −1.680 and the Activity [9] was “no”.

`CCCCC[C@H](CC(=O)NO)C(=O)N[C@H](C(=O)N1CCC[C@H]1CO)C(C)C` [Actinonin] was tested, and the “Z Score” value (168 h, 3 µM) was −3.501, the Z score (168 h, 3 µM) was −3.501 and the Activity [6] was “yes”.

For `NC(=O)c1cc[n+](CC2=C(C(=O)O)N3C(=O)[C@@H](NC(=O)[C@@H](c4ccccc4)S(=O)(=O)[O-])[C@H]3SC2)cc1` [Cefsulodin sodium salt hydrate], the “Z Score” value [5] was −2.277, the Z score [1] was −2.277 and the Activity [2] was “no”.

In the case of `Clc1ccc(C(c2ccc(Cl)cc2)n2cc[n+](CC(OCc3ccc(Cl)cc3Cl)c3ccc(Cl)cc3Cl)c2)cc1` (stereo not drawn) [Calmidazolium chloride], the “Z Score” value (168 h, 3 µM) is reported as −8.582, the Z score (168 h, 3 µM) is reported as −8.582 and the Activity [6] is reported as “yes”.

`CN(C)CCC(c1ccc(Br)cc1)c1ccccn1.O=C(O)/C=C\C(=O)O` (racemic) [(±)-Brompheniramine maleate] was tested, and the Z score [1] was −3.530 and the Activity [2] was “yes”.

With `C[C@@H]1O[C@H](C[N+](C)(C)C)C[C@H]1O.[Cl-]` [(B1)-Muscarine chloride] the “Z Score” value was −1.905.

With (S)-(−)-propafenone hydrochloride the “Z Score” value [10] was −0.7524, the Z score [1] was −0.752 and the Activity [4] was “no”.

With `Cc1ccc(C(=O)Nc2ccc(S(=O)(=O)[O-])c3cc(S(=O)(=O)[O-])cc(S(=O)(=O)[O-])c23)cc1NC(=O)c1cccc(NC(=O)Nc2cccc(C(=O)Nc3cc(C(=O)Nc4ccc(S(=O)(=O)[O-])c5cc(S(=O)(=O)[O-])cc(S(=O)(=O)[O-])c45)ccc3C)c2)c1.[Na+].[Na+].[Na+].[Na+].[Na+].[Na+]` [Suramin hexasodium] the “Z Score” value [7] was 2.284, the Z score [11] was 2.284 and the Activity [9] was “no”.

With `CC(C)(C)c1o[nH]c(=O)c1CC(N)C(=O)O` (stereo not drawn) [ATPA] the Activity was “no”, the “Z Score” value was 0.2832 and the Z score [11] was 0.283.

With `CN1C[C@@H](NS(=O)(=O)N(C)C)C[C@@H]2c3cccc4c3c(cn4C)C[C@H]21` [Mesulergine hydrochloride] the “Z Score” value [5] was −2.16, the Z score [1] was −2.160 and the Activity [2] was “no”.

With `CC(C)(C)NCC(O)COc1cccc2[nH]c(=O)[nH]c12.Cl` (racemic) [(±)-CGP-12177A hydrochloride] the Z score [8] was −1.611 and the Activity [3] was “no”.

With `CC[N+](C)(CC)CC(=O)Nc1c(C)cccc1C.[Cl-]` [Lidocaine N-methyl hydrochloride] the “Z Score” value [10] was −0.6828, the Z score [1] was −0.683 and the Activity [3] was “no”.

With `Oc1cccc2c(O)nccc12` [1,5-Isoquinolinediol] the “Z Score” value [12] was 0.02674, the Z score [1] was 0.027 and the Activity [3] was “no”.

In the case of `Cc1ncc(CNC(=O)N(CCCl)N=O)c(N)n1` [Nimustine hydrochloride], the “Z Score” value is reported as −0.6524.

For `CC#C[C@]1(O)CC[C@H]2[C@@H]3CCC4=CC(=O)CCC4=C3[C@@H](c3ccc(N(C)C)cc3)C[C@@]21C` [Mifepristone], the “Z Score” value (168 h, 3 µM) was −1.97, the Z score (168 h, 3 µM) was −1.970 and the Activity [6] was “no”.

In the case of `Cc1ccc(S(=O)(=O)N[C@@H](Cc2ccccc2)C(=O)CCl)cc1`, the “Z Score” value is reported as 0.3367, the Z score [11] is reported as 0.337 and the Activity [9] is reported as “no”.

In the case of `O=C(O)c1cc(=O)c2ccccc2[nH]1` [Kynurenic acid], the “Z Score” value [12] is reported as 0.7018, the Z score [1] is reported as 0.702 and the Activity [3] is reported as “no”.

With `CNCCc1c[nH]c2ccc(O)cc12.O=C(O)C(=O)O` the “Z Score” value was 0.656, the Z score [1] was 0.656 and the Activity [6] was “no”.

With `O=C1CC2(CCCC2)CC(=O)N1CCCCN1CCN(c2ncccn2)CC1` [Buspirone hydrochloride] the Activity was “no”, the “Z Score” value (168 h, 3 µM) was −1.775 and the Z score (168 h, 3 µM) was −1.775.

`Cc1c(CC(C)(C)C(=O)O)n(Cc2ccc(Cl)cc2)c2ccc(F)cc12` [L-655,240] was tested, and the “Z Score” value was −0.121, the Z score [1] was −0.121 and the Activity [3] was “no”.

In the case of `Oc1cc2c(cc1O)[C@H]1c3ccccc3CN[C@@H]1CC2` (racemic) [Dihydrexidine hydrochloride], the “Z Score” value [10] is reported as −0.4153, the Z score [8] is reported as −0.415 and the Activity [3] is reported as “no”.

`C[C@H](Cc1ccc2c(c1)OC(C(=O)[O-])(C(=O)[O-])O2)NC[C@H](O)c1cccc(Cl)c1.[Na+].[Na+]` [CL 316, 243] was tested, and the “Z Score” value was 0.6212.

With `Nc1ccncc1` [4-Aminopyridine] the “Z Score” value [5] was −1.516, the Z score [1] was −1.516 and the Activity [4] was “no”.

With `CC(CN1c2ccccc2Sc2ccccc21)N(C)C` (stereo not drawn) [Promethazine hydrochloride] the “Z Score” value [12] was 0.4746, the Z score [1] was 0.475 and the Activity [2] was “no”.

With `NC(=O)c1ccc(OCC(O)CN2CC=C(c3ccc(F)cc3)CC2)cc1` (stereo not drawn) [Ro 8-4304] the “Z Score” value was −2.188, the Z score [1] was −2.188 and the Activity [4] was “no”.

In the case of `Cl.NCC(O)c1ccc(O)cc1` (racemic) [(±)-Octopamine hydrochloride], the Z score [1] is reported as −1.567 and the Activity [4] is reported as “no”.

For `CC1COc2c(N3CCN(C)CC3)c(F)cc3c(=O)c(C(=O)O)cn1c23` (stereo not drawn) [Ofloxacin], the “Z Score” value [10] was −0.4889 and the Z score [1] was −0.489.

`CCCCC1(C2CCCC2)Cc2cc(OCC(=O)O)c(Cl)c(Cl)c2C1=O` (stereo in doubt) [R(+)-Butylindazone] was tested, and the “Z Score” value was 0.02924, the Z score [8] was 0.029 and the Activity [3] was “no”.

For `O=c1[nH]c(=O)n([C@H]2C[C@H](O)[C@@H](CO)O2)cc1/C=C/Br` [(E)-5-(2-Bromovinyl)-2′-deoxyuridine], the “Z Score” value (168 h, 3 µM) was −2.123, the Z score (168 h, 3 µM) was −2.123 and the Activity [3] was “no”.

`CCOC(=O)[C@]12CC1/C(=N\O)c1ccccc1O2` (mixture of isomers) [CPCCOEt] was tested, and the “Z Score” value [10] was −0.8068 and the Z score [8] was −0.807.

For `Br.C[N+](C)(C)CCCCCNCC12CC3CC(CC(C3)C1)C2.[Br-]` [IEM-1460], the “Z Score” value was 0.6848, the Z score [1] was 0.685 and the Activity [3] was “no”.

With `CN(C)CCCN1c2ccccc2CCc2ccccc21` [Imipramine hydrochloride] the Activity was “no”, the “Z Score” value [10] was −0.5272 and the Z score [1] was −0.527.

For `Cl.Cl.Cl.NCCCCNCCCN` [Spermidine trihydrochloride], the “Z Score” value [12] was 1.259, the Z score [1] was 1.259 and the Activity [4] was “no”.
